Reference: patent US9241951B2, “Of gastrointestinal health, immunity and performance by dietary intervention” (BIOATLANTIS LTD, priority 2009, dated 2016)

Tests used:
Format in all cases: in vivo, pig
IL-8 = assay: Cytokine gene expression after ex-vivo LPS tissue challenge of ileum and colon, Example 5
Description: (§1) 21 pigs with an initial weight of 17.9±2.2 Kg were assigned to one of the 3 dietary treatments: (T1) control; (T2) basal diet+300 ppm LAM; (T3) basal diet+600 ppm LAM. Experimental feeding continued for 21 days ad libitum. Diets were formulated to have similar digestible energy (DE) (14.4 MJ/Kg) and ileal digestible lysine (12.5 g/Kg).
Ileal and colonic tissues were sampled from the same location as described for digesta samples. Excised tissues were emptied by dissecting them along the mesentery and rinsing them using sterile phosphate buffered saline (PBS) (Oxoid). Tissue sections 1 cm^3, which had been stripped of the overlying smooth muscle were cut from each tissue. Two sections from each tissue were placed in 1 ml of Dulbecco's Modified Eagle's Medium (DMEM) (Gibco), one in the presence of bacterial lipopolysaccharide (LPS) (Sigma Aldrich) at a concentration of 10 μg/ml. The other tissue sample was used as a control and incubated in sterile DMEM in the absence of LPS. Both challenged and unchallenged tissues were incubated at 37° C. for 90 minutes before being removed, blotted dry and weighed. Approximately 1-2 g of porcine ileum and colon tissues were cut into small pieces and collected in 15 ml of RNAlater® (Applied Biosystems, Foster City, Calif.). RNAlater® was removed before storing the samples at −80° C. until used for RNA extraction.
Tissue samples for RNA extraction were removed from −86° C. and homogenised. 500 μl of lysis solution/2-ME was added to each sample and these were mechanically disrupted using one 5 mm stainless steel bead per sample. These were then placed in a Tissue Lyser (Qiagen) and lysates were homogenised for 3 mins and transferred to a GenElute Filtration Column (Sigma Aldrich) and RNA was extracted. 1 µg of total RNA was used for cDNA synthesis using oligo(dT)20 primer in a final reaction volume of 20 μl with Superscript™ III First-Strand synthesis system for reverse transcriptase-polymerase chain reaction (RT-PCR) (Invitrogen Life Technologies, Carlsbad, Calif.). At the last step of cDNA synthesis, treatment with E. coli RNase H (Invitrogen Corp.) was performed to digest the remaining RNA/mRNA template, resulting in the production of the single-stranded cDNA template for subsequent qRT-PCR reactions.
All porcine primers for the cytokine genes interferon gamma (IFN-γ), interleukin-1α (IL-1α), IL-6, IL-8, IL-10, IL-17, tumour necrosis factor (TNF-α), the mucin genes (MUCs 1, 2, 4, 5AC, 12, 13 and 20) and three reference genes, β-actin (ACTB), Glyceraldehyde-3-phosphate dehydrogenase (GAPDH) and Peptidylprolyl isomerase A (PPIA), were designed using Primer Express™ (PE Applied Biosystems, Foster City, Calif.) and synthesised by MWG Biotech (Milton Keynes, UK). These reference genes were previously validated for use in porcine tissue and qPCR was then carried out on the cDNA using the ABI PRISM 7900HT Fast sequence detection system for 96-well plates (Applied Biosystems, Foster City, Calif.). All samples were prepared in duplicate using SYBR Green Fast PCR Master Mix (Applied Biosystems, Foster City, Calif.), cDNA as template and specific primers for the genes selected. For each reaction 5 μl cDNA, 1.2 μl (forward and reverse primer mix, 5 μM), 10 μl Fast SYBR Green PCR Master Mix (PE Applied Biosystems, Foster City, Calif.) was added and made up to a final volume of 20 μl. The two step PCR program was as follows: 95° C. for 10 minutes for 1 cycle followed by 95° C. for 15 seconds and 60° C. for 1 minute for 40 cycles. The raw Ct values for the reference genes were converted to relative quantities using the formula Q=E ^ΔCt where E is the PCR efficiency of the assay and ^ΔCt is the value calculated for the difference between the lowest Ct value for each gene minus the Ct value of the sample in question. The relative quantities of the endogenous controls were then analysed for stability in geNorm (Vandesompele et al., 2002). […]

[1] = Animal performance and nutrient digestibility, Example 5; conditions: increasing LAM 0, 300, 600 ppm, 21 days
Description: as §1

Enterobacteriaceae = assay: Microbial analysis of ileum and colon digesta, Example 5
Description: (§2) 21 pigs with an initial weight of 17.9±2.2 Kg were assigned to one of the 3 dietary treatments: (T1) control; (T2) basal diet+300 ppm LAM; (T3) basal diet+600 ppm LAM. Experimental feeding continued for 21 days ad libitum. Diets were formulated to have similar digestible energy (DE) (14.4 MJ/Kg) and ileal digestible lysine (12.5 g/Kg). Post-slaughter, digestive tract was removed by dissection and digesta was removed from the ileum. Each digesta sample was serially diluted in maximum recovery diluent (MRD, Oxoid, Basingstoke, UK), and spread plated onto selective agars. Bifidobacteria, Lactobacilli and Enterobacteria species were isolated according to the methods described by Pierce et al. (2005). Digesta samples used to measure VFA concentration were collected from the caecum and the same location in the ileum and colon. VFA analysis was performed using gas liquid chromatography (GLC) according to the method described by Pierce et al., (2005).

Bifidobacteria = assay: as above; conditions: ileum; LAM 0-600 ppm
Description: as §2

Lactobacilli = assay: as above; conditions: ileum; LAM 0-600 ppm
Description: as §2

[2] = Faecal pH, dry matter and faeces (diarrhoea) scoring, Example 4
Description: One hundred and ninety two piglets were weaned at twenty four days of age, with an initial live weight of 6.4±0.785 Kg and assigned to one of four dietary treatments or 21 days post weaning. The dietary treatments consisted of (T1) basal diet, (T2) basal diet with 300 ppm LAM, (T3) basal diet with 236 ppm FUC, (T4) Basal diet with 300 ppm LAM and 236 ppm FUC. Diets were formulated to have identical concentrations of digestible energy (DE) (16 MJ/Kg) and ileal digestible lysine (14 g/Kg). All amino acid requirements were met relative to lysine (Close, 1994). Chromium III oxide was added to the diets for determination of nutrient digestibility. The LAM and FUC were derived from Laminaria hyperborea.
Piglets were housed in groups of 4 and offered feed twice daily. Water was supplied ad-libitum. Any pig displaying symptoms of illness was treated appropriately and recorded. Pigs were weighed on day 0 (day of weaning), 7, 14 and 21. Feed intake was monitored weekly. Fresh faecal samples were taken on day 10 and were analysed for E. coli and Lactobacilli concentrations. Faeces samples were collected from each pen on day 12-17 and were retained for chemical analysis. Fresh faecal samples were removed on day 14 and were frozen and retained for volatile fatty acid analysis. Fresh faecal samples were taken on day 17 for pH determination.
A scoring system was applied to indicate its presence and severity. The following scoring system was used: 1=hard, 2=slightly soft, 3=soft, partially formed, 4=loose, semi-liquid and 5=watery, mucous-like.

laminarin
IL-8 gene expression (IL-8; colon, LPS-challenged tissue, increasing LAM): linear increase
IL-8 gene expression (IL-8; ileum, ex-vivo LPS challenge (10 μg/ml, 90 minutes)): no effect
nutrient digestibility coefficients (DM, OM, ash, N or GE) [1]: no effect
performance (food intake, daily gain or food conversion ratio) [1]: no effect
Enterobacteriaceae (Enterobacteriaceae; colon, LAM from Laminaria digitata, 300 and 600 ppm): decrease
Enterobacteriaceae populations (Enterobacteriaceae; ileum, LAM 0-600 ppm): no effect
Bifidobacteria populations (Bifidobacteria): no effect
Lactobacilli populations (Lactobacilli): no effect
faecal DM content ([2]; LAM supplemented diets (300 ppm) v unsupplemented (26.24), in % (unit assumed)): 28.64
faecal score ([2]; days 0-21, compared to the basal diet): no effect
faecal score ([2]; days 7-14, scale 1 (hard) to 5 (watery), LAM supplemented diets v 2.57): 2.05
